Reference: PubChem BioAssay AID1919006 (Molecular Pharmacology Branch, DTP, NCI, 2023)

Tested on: 885512-296-R-J2-PDC complex spheroid growth, % test/control
Assay: Anticancer human tumor 885512-296-R-J2-PDC patient-derived breast carcinoma cell line growth inhibition [AhR]
Settings: for IC50: curve of first compound; for viability, T/C: stronger effect = lower value
How it was run: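 Agents were dosed in half-log steps down from roughly clinical Cmax, or from 10 microM where Cmax was unknown, alone and with AhR antagonists. Read-out: percent test/control growth of tumor spheroids containing HUVEC and MSC stromal cells.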

[1] = second compound 0.1 µM, first compound 0.00949 µM
[2] = second compound 0.1 µM, first compound 0.03 µM
[3] = second compound 0.1 µM, first compound 0.0949 µM
[4] = second compound 0.1 µM, first compound 0.3 µM
[5] = second compound 0.316 µM, first compound 0.00949 µM
[6] = second compound 0.316 µM, first compound 0.03 µM
[7] = second compound 0.316 µM, first compound 0.0949 µM
[8] = second compound 0.316 µM, first compound 0.3 µM
[9] = second compound 1 µM, first compound 0.00949 µM
[10] = second compound 1 µM, first compound 0.03 µM
[11] = second compound 1 µM, first compound 0.0949 µM
[12] = second compound 1 µM, first compound 0.3 µM
[13] = second compound 3.16 µM, first compound 0.00949 µM
[14] = second compound 3.16 µM, first compound 0.03 µM
[15] = second compound 3.16 µM, first compound 0.0949 µM
[16] = second compound 3.16 µM, first compound 0.3 µM
[17] = second compound 10 µM, first compound 0.00949 µM
[18] = second compound 10 µM, first compound 0.03 µM
[19] = second compound 10 µM, first compound 0.0949 µM
[20] = second compound 10 µM, first compound 0.3 µM
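Further: spheroids exposed to compounds for seven days.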

Nc1ncn(C2CC(O)C(CO)S2)c(=O)n1 (stereo not given) + Cc1cncc(-c2nc(NCCc3c[nH]c4ccccc34)c3ncn(C(C)C)c3n2)c1
IC50 (second compound 0.1 µM): 96.6 nM
IC50 (second compound 0.316 µM): 93.9 nM
IC50 (second compound 1 µM): 44.8 nM
IC50 (second compound 3.16 µM): 3.46 nM
IC50 (second compound 10 µM): < 0.949 nM
viability, T/C (second compound 0.1 µM, first compound 0.000949 µM): 99.5%
viability, T/C (second compound 0.1 µM, first compound 0.003 µM): 110%
viability, T/C [1]: 107%
viability, T/C [2]: 79%
viability, T/C [3]: 53%
viability, T/C [4]: 40.9%
viability, T/C (second compound 0.316 µM, first compound 0.000949 µM): 98%
viability, T/C (second compound 0.316 µM, first compound 0.003 µM): 94.1%
viability, T/C [5]: 99.1%
viability, T/C [6]: 75.9%
viability, T/C [7]: 51.3%
viability, T/C [8]: 38.8%
viability, T/C (second compound 1 µM, first compound 0.000949 µM): 67.6%
viability, T/C (second compound 1 µM, first compound 0.003 µM): 67.8%
viability, T/C [9]: 70.7%
viability, T/C [10]: 55.7%
viability, T/C [11]: 38.8%
viability, T/C [12]: 33.1%
viability, T/C (second compound 3.16 µM, first compound 0.000949 µM): 47.4%
viability, T/C (second compound 3.16 µM, first compound 0.003 µM): 54.8%
viability, T/C [13]: 47.8%
viability, T/C [14]: 42.5%
viability, T/C [15]: 36%
viability, T/C [16]: 27.5%
viability, T/C (second compound 10 µM, first compound 0.000949 µM): 21%
viability, T/C (second compound 10 µM, first compound 0.003 µM): 23.5%
viability, T/C [17]: 18.9%
viability, T/C [18]: 15%
viability, T/C [19]: 17.4%
viability, T/C [20]: 13.9%

O=C(C=Cn1cnc(-c2cc(C(F)(F)F)cc(C(F)(F)F)c2)n1)NNc1cnccn1 + Cc1cncc(-c2nc(NCCc3c[nH]c4ccccc34)c3ncn(C(C)C)c3n2)c1
IC50 (second compound 0.1 µM): 60.6 nM
IC50 (second compound 0.316 µM): 69.2 nM
IC50 (second compound 1 µM): 65.8 nM
IC50 (second compound 3.16 µM): 42.5 nM
IC50 (second compound 10 µM): < 9.49 nM
viability, T/C [1]: 93.3%
viability, T/C [2]: 99.9%
viability, T/C [3]: 20.3%
viability, T/C [4]: 4.2%
viability, T/C (second compound 0.1 µM, first compound 0.949 µM): 2.2%
viability, T/C (second compound 0.1 µM, first compound 3 µM): 1.61%
viability, T/C [5]: 97.4%
viability, T/C [6]: 93%
viability, T/C [7]: 33.8%
viability, T/C [8]: 5.36%
viability, T/C (second compound 0.316 µM, first compound 0.949 µM): 2.35%
viability, T/C (second compound 0.316 µM, first compound 3 µM): 1.45%
viability, T/C [9]: 98.2%
viability, T/C [10]: 89.4%
viability, T/C [11]: 31.6%
viability, T/C [12]: 4.92%
viability, T/C (second compound 1 µM, first compound 0.949 µM): 2.78%
viability, T/C (second compound 1 µM, first compound 3 µM): 1.53%
viability, T/C [13]: 64.6%
viability, T/C [14]: 66.2%
viability, T/C [15]: 14.8%
viability, T/C [16]: 5.25%
viability, T/C (second compound 3.16 µM, first compound 0.949 µM): 2.77%
viability, T/C (second compound 3.16 µM, first compound 3 µM): 1.58%
viability, T/C [17]: 19.2%
viability, T/C [18]: 16.8%
viability, T/C [19]: 8.05%
viability, T/C [20]: 4.48%
viability, T/C (second compound 10 µM, first compound 0.949 µM): 3.45%
viability, T/C (second compound 10 µM, first compound 3 µM): 2.01%

Nc1ccn(C2OC(CO)C(O)C2(F)F)c(=O)n1 (stereo not given) + CC(CO)NC(=O)c1cc(-c2ccc(Cl)cc2)nn(-c2cnn(C)c2)c1=O
IC50 (second compound 0.1 µM): < 31.6 nM
IC50 (second compound 0.316 µM): < 31.6 nM
IC50 (second compound 1 µM): < 31.6 nM
IC50 (second compound 3.16 µM): < 31.6 nM
IC50 (second compound 10 µM): < 31.6 nM
viability, T/C (second compound 0.1 µM, first compound 0.0316 µM): 2.76%
viability, T/C (second compound 0.1 µM, first compound 0.1 µM): 3%
viability, T/C (second compound 0.1 µM, first compound 0.316 µM): 3.87%
viability, T/C (second compound 0.1 µM, first compound 1 µM): 4.14%
viability, T/C (second compound 0.1 µM, first compound 3.16 µM): 4.54%
viability, T/C (second compound 0.1 µM, first compound 10 µM): 3.83%
viability, T/C (second compound 0.316 µM, first compound 0.0316 µM): 3.69%
viability, T/C (second compound 0.316 µM, first compound 0.1 µM): 3.44%
viability, T/C (second compound 0.316 µM, first compound 0.316 µM): 2.94%
viability, T/C (second compound 0.316 µM, first compound 1 µM): 4.15%
viability, T/C (second compound 0.316 µM, first compound 3.16 µM): 4.75%
viability, T/C (second compound 0.316 µM, first compound 10 µM): 4.18%
viability, T/C (second compound 1 µM, first compound 0.0316 µM): 2.96%
viability, T/C (second compound 1 µM, first compound 0.1 µM): 3.26%
viability, T/C (second compound 1 µM, first compound 0.316 µM): 3.72%
viability, T/C (second compound 1 µM, first compound 1 µM): 3.82%
viability, T/C (second compound 1 µM, first compound 3.16 µM): 5.38%
viability, T/C (second compound 1 µM, first compound 10 µM): 4.22%
viability, T/C (second compound 3.16 µM, first compound 0.0316 µM): 3.18%
viability, T/C (second compound 3.16 µM, first compound 0.1 µM): 2.97%
viability, T/C (second compound 3.16 µM, first compound 0.316 µM): 3.84%
viability, T/C (second compound 3.16 µM, first compound 1 µM): 3.9%
viability, T/C (second compound 3.16 µM, first compound 3.16 µM): 4.31%
viability, T/C (second compound 3.16 µM, first compound 10 µM): 4.48%
viability, T/C (second compound 10 µM, first compound 0.0316 µM): 6.37%
viability, T/C (second compound 10 µM, first compound 0.1 µM): 5.16%
viability, T/C (second compound 10 µM, first compound 0.316 µM): 4.54%
viability, T/C (second compound 10 µM, first compound 1 µM): 3.78%
viability, T/C (second compound 10 µM, first compound 3.16 µM): 4.11%
viability, T/C (second compound 10 µM, first compound 10 µM): 4.01%
